# According to paper PMC12298624, “Anti-Infective Properties, Cytotoxicity, and In Silico ADME Parameters of Novel 4′-(Piperazin-1-yl)benzanilides” (Pharmaceuticals, 2025):
# Where two headings read alike, the source gives them in different places.
# Columns and labels:
# P. falciparum NF54 = assay: In vitro microplate assay against P. falciparum NF54 (3H-hypoxanthine incorporation); assay type: cell-based, Plasmodium falciparum; conditions: Plasmodium falciparum
# Protocol: Serial drug dilutions of eleven 3-fold dilution steps covering a range from 100 to 0.002 µg/mL were prepared. […] After 48 h of incubation time, 0.05 mL of ^3H-hypoxanthine (=0.5 µCi) was added to each well of the plate. The plates were incubated for a further 24 h under the same conditions. Plates were then harvested using a BetaplateTM cell harvester (Wallac, Zurich, Switzerland). Red blood cells were transferred onto a glass fiber filter and then washed with distilled aqua demin. The dried filters were inserted into a plastic foil with 10 mL of scintillation fluid and counted in a BetaplateTM liquid scintillation counter (Wallac, Zurich, Switzerland). IC50 values were calculated from sigmoidal inhibition curves by linear regression using Microsoft Excel. […] Louis, MO, USA) was used as control.
# [1] = Resazurin-based in vitro cytotoxicity with L-6 cells; assay type: cell-based, rat
# Protocol: Serial drug dilutions of eleven 3-fold dilution steps covering a range from 100 to 0.002 µg/mL were prepared. After 70 h of incubation, the plates were inspected under an inverted microscope to assure growth of the controls and sterile conditions. […] The plates were read with a Spectramax Gemini XS microplate fluorometer (Molecular Devices Cooperation, Sunnyvale, CA, USA) using an excitation wavelength of 536 nm and an emission wavelength of 588 nm. IC50 values were calculated by linear regression from the sigmoidal dose–inhibition curves using SoftmaxPro software Version 8.2.1 (Molecular Devices Cooperation, Sunnyvale, CA, USA). Podophyllotoxin (Sigma P4405) was used as control.
# [2] = Resazurin-based in vitro cytotoxicity with HepG2 cells; assay type: cell-based, human; conditions: HepG2 cells; human hepatocarcinoma cells, 48 h
# Protocol: The HepG2 cells were washed with DPBS (Dulbecco’s PBS without calcium and magnesium, Gibco, Cat #21600-044) and trypsinized with trypsin solution in DPBS. Trypsinization was stopped by adding culture medium, and after being stained with Trypan Blue (SORS Ukraine) cells were counted using a counting chamber (Hausser Scientific, Cat #3500). The cell suspension was placed in a falcon tube containing plating medium DMEM/High glucose with 1% fetal bovine serum, 100 units/mL penicillin, and 100 µg/mL streptomycin. Cells at a density of 250,000 cells/mL were seeded in sterile 384-well plates (Greiner Bio-One, Cat #781091) in a volume of […] and incubated at 37 °C and 5% CO2. Serial dilutions of ten 3-fold dilution steps of test and reference compounds covering a range from 100.0 to 0.005 µM were added to the wells, followed by incubation at 37 °C and 5% CO2 for 48 h. Then, resazurin (50 µM final concentration) was added and plates were incubated for another 3 h. The plates were read with a SpectraMax microplate reader (Molecular Devices Cooperation, Sunnyvale, CA, USA)) using an extinction wavelength of 555 nm and an emission wavelength of 570 nm. IC50 values were calculated using GraphPad Prism 9.0 charting software. Doxorubicin (Sigma Aldrich D1515) was used as control.
# [3] = Parallel artificial membrane permeability assay (PAMPA); conditions: for Papp at 5 h, 200 µM: PAMPA, pH 7.4, Pe, PBS pH 7.4, 200 µM, room temperature; for Pe: PAMPA standards
# Protocol: With the high-throughput PAMPA the newly synthesized compounds were tested for their passive permeability through cell membranes without the influence of efflux pumps or transporter proteins. The assay was performed using a Corning® Gentest^TM Precoated PAMPA Plate System (Corning, Glendale, AZ, USA) with 96-well polystyrene plates. The bottom of the acceptor plate consists of a porous membrane, whereby the pores are lined with a lipid–oil–lipid triple layer. Stock solutions of each test compound at 10 mM were prepared in DMSO or methanol and diluted with phosphate-buffered saline (PBS at a pH of 7.4) to a final concentration of 200 µM. […] The donor plate (bottom plate) was filled with the compound solutions, whereby all compounds were tested in quadruplicates. Each well of the acceptor plate (top plate) was filled with PBS buffer. Donor and acceptor plates were combined and incubated at room temperature for 5 h. After that, the plates were separated and 150 µL of each well of both plates were transferred to 96-well UV plates (Greiner Bio-One). Absorption at different wavelengths covering a range from 200 to 300 nm was measured using a SpectraMax M3 UV plate reader. […] The plates were analyzed at the wavelength where the R2 value of the calibration curve was higher than 0.99 [47].
# Recovery of compounds from donor and acceptor wells (mass retention) was calculated as shown in the equation below. Data were only accepted when recovery exceeded 70%. The equation is as follows:(3) R=1−[cDt×VD+cAt×VA]/(c0×VD) where
# [4] = tested on: K. pneumoniae ATCC 700603; assay: MIC/MBC microbroth dilution (EUCAST); assay type: cell-based; conditions: Klebsiella pneumoniae, ATCC700603
# Protocol: (§1) Minimum inhibitory concentrations (MIC values) were obtained using the microbroth dilution method as stated in the EUCAST guidelines. Tests were conducted on cation adjusted Mueller–Hinton broth (caMHB) or agar (caMHA). These were prepared and stored following the manufacturer’s guidelines. Biological organisms were prepared via growth on either Luria–Bertani (LB) or cation adjusted Mueller–Hinton agar plates. These were grown for 24 h at 37 °C, except for Micrococcus luteus where MICs took longer to grow and as a consequence were read after 48 h once a clear positive control could be observed. For the MIC experiment, the bacteria were prepared using the McFarland 0.5 standard and diluted 1 in 100 or 1 in 10 in caMHB following EUCAST and CSLI guidelines for the preparation of bacteria. Testing of the compounds using the microbroth dilution method took place in 96-well plates. Serial 2-fold dilutions of compounds in caMHB covering a range from 256 µg/mL to 0.25 µg/mL were prepared. Bacteria preparations (McFarland) were added to the compound dilutions, further halving the compound concentrations. The plate was then incubated for 18 h at 37 °C. Controls for the MIC experiments included a bacterial growth (positive) control of bacteria and caMHB only and a media only (negative) control. After incubation, the plates were read, whereby the positive control of bacteria was visible and the negative control was clear of contamination. The last clear well, where there is no growth of bacteria, was counted as the MIC value. […] The lowest concentration without any bacterial growth was counted as the MBC value. The following pathogens were used: Pseudomonas aeruginosa NCTC 13437, Escherichia coli NCTC 13353, Bacillus subtilis 168a, Serratia marcescens NCTC 9940, Micrococcus luteus ATCC 10240, Staphylococcus aureus JE2 USA 300, Acinetobacter baumannii ATCC 19606, and Klebsiella pneumoniae ATCC 700603. A concentration range of 256 µg/mL to 0.25 µg/mL of a combination of ciprofloxacin and meropenem against E. coli 25922 was used as an antibiotic control to ensure correct dilution and performance of the assay.
# P. aeruginosa NCTC 13437 = assay: MIC/MBC microbroth dilution (EUCAST); assay type: cell-based; conditions: Pseudomonas aeruginosa, NCTC13437
# Protocol: as §1
# S. aureus JE2 USA 300 = assay: MIC/MBC microbroth dilution (EUCAST); assay type: cell-based; conditions: Staphylococcus aureus, USA300, S. aureus JE2 USA 300
# Protocol: as §1
# S. marcescens NCTC 9940 = assay: MIC/MBC microbroth dilution (EUCAST); assay type: cell-based; conditions: Serratia marcescens, NCTC9940
# Protocol: as §1
# E. coli NCTC 13353 = assay: MIC/MBC microbroth dilution (EUCAST); assay type: cell-based, Escherichia coli; conditions: Escherichia coli
# Protocol: as §1
# A. baumannii ATCC 19606 = assay: MIC/MBC microbroth dilution (EUCAST); assay type: cell-based, Acinetobacter baumannii; conditions: Acinetobacter baumannii
# Protocol: as §1
# B. subtilis 168a = assay: MIC/MBC microbroth dilution (EUCAST); assay type: cell-based, Bacillus subtilis; conditions: Bacillus subtilis, 168A
# Protocol: as §1
# [5] = NF54, chloroquine-sensitive strain NF54, erythrocytic stages, read-out: P.f.NF54 IC50
# [6] = rat skeletal myofibroblasts, read-out: Cytotoxicity L-6 Cells IC50
Structure (SMILES),IC50 (P. falciparum NF54; [5]) [µM],"Papp at 5 h, 200 µM [3] [×10⁻⁶ cm/s]",IC50 at 70 h ([1]; rat) [µM],IC50 at 48 h [2] [µM],other results
"COc1cc([C@@H]2c3cc4c(cc3[C@H](O)[C@H]3COC(=O)[C@H]23)OCO4)cc(OC)c1OC [POD, podophyllotoxin, reference compound]",,,,,"IC50 at 70 h [1, 6]: 0.012 µM"
"Cn1c(=O)c2c(ncn2C)n(C)c1=O [caffeine, reference compound]",,,,,Pe [3]: 8 ×10⁻⁶ cm/s
"CN(C)c1ccccc1NC(=O)c1cccc(C(F)(F)F)c1Oc1ccc(F)cc1 [Compound 35, N-[2-(Dimethylamino)phenyl]-2-(4-fluorophenoxy)-3-(trifluoromethyl)benzamide]",4.4,,25.1,,
"CCN(CC)CCCC(C)Nc1ccnc2cc(Cl)ccc12 (centres unmarked) [CQ, chloroquine, reference compound]",,,,,"IC50 (P. falciparum NF54; NF54, read-out: P.f.NF54 IC50): 0.009 µM; IC50 at 70 h [1, 6]: 90.9 µM"
"COc1cccc2c1C(=O)c1c(O)c3c(c(O)c1C2=O)C[C@@](O)(C(=O)CO)C[C@@H]3O[C@H]1C[C@H](N)[C@H](O)[C@H](C)O1 [DOX, doxorubicin, reference compound]",,,,0.3,
"NS(=O)(=O)c1cc2c(cc1Cl)NCNS2(=O)=O [hydrochlorothiazide, reference compound]",,,,,Pe [3]: 0.09 ×10⁻⁶ cm/s
"O=C(Nc1ccc(N2CCOCC2)cc1)c1cccc(C(F)(F)F)c1Oc1ccc(F)cc1 [Compound 33, 2-(4-Fluorophenoxy)-N-[4-(morpholin-4-yl)phenyl]-3-(trifluoromethyl)benzamide]",6.81,3.92,195,35.3,
"O=C(Nc1ccccc1N1CCOCC1)c1cccc(C(F)(F)F)c1Oc1ccc(F)cc1 [Compound 32, 2-(4-Fluorophenoxy)-N-[2-(morpholin-4-yl)phenyl]-3-(trifluoromethyl)benzamide]",3.04,6.63,161,> 100,
"CN1CCN(c2ccccc2NC(=O)c2cccc(C(F)(F)F)c2Oc2ccc(F)cc2)CC1 [Compound 31, 2-(4-Fluorophenoxy)-N-[2-(4-methylpiperazin-1-yl)phenyl]-3-(trifluoromethyl)benzamide]",14,,120,,

# Further lines, with some results ahead:
IC50 (P. falciparum NF54; [5]) [µM],"Papp at 5 h, 200 µM [3] [×10⁻⁶ cm/s]",Structure (SMILES),IC50 at 70 h ([1]; rat) [µM],IC50 at 48 h [2] [µM],other results
2.6,3.91,"O=C(Nc1ccc(N2CCNCC2)cc1)c1cccc(C(F)(F)F)c1 [Compound 66, N-[4-(Piperazin-1-yl)phenyl]-3-(trifluoromethyl)benzamide]",41.5,11.8,
2.04,14.2,"O=C(Nc1ccc(N2CCNCC2)cc1)c1ccccc1Oc1ccc(F)cc1 [Compound 59, 2-(4-Fluorophenoxy)-N-[4-(piperazin-1-yl)phenyl]benzamide]",25.4,38.9,"MBC [4]: 128 µg/mL; MIC [4]: 128 µg/mL; MBC (P. aeruginosa NCTC 13437): > 256 µg/mL; MIC (P. aeruginosa NCTC 13437): > 256 µg/mL; MBC (S. aureus JE2 USA 300): 128 µg/mL; MIC (S. aureus JE2 USA 300): 128 µg/mL; MBC (S. marcescens NCTC 9940): > 256 µg/mL; MIC (S. marcescens NCTC 9940): > 256 µg/mL; MBC (E. coli NCTC 13353; NCTC13353): > 256 µg/mL; MIC (E. coli NCTC 13353; NCTC13353, read-out: MIC): 256 µg/mL; MBC (A. baumannii ATCC 19606; ATCC19606): 256 µg/mL; MIC (A. baumannii ATCC 19606; ATCC19606, read-out: MIC): 256 µg/mL; MBC (B. subtilis 168a): 128 µg/mL; MIC (B. subtilis 168a; read-out: MIC): 128 µg/mL"
11.1,0.26,"CC(=O)Nc1ccc(Oc2c(C(=O)Nc3ccccc3N3CCNCC3)cccc2C(F)(F)F)cc1 [Compound 54, 2-(4-Acetamidophenoxy)-N-[2-(piperazin-1-yl)phenyl]-3-(trifluoromethyl) benzamide]",13.2,,
51.8,1.82,"CC(C)(C)OC(=O)N1CCN(C(=O)c2cccc(C(F)(F)F)c2Oc2ccc(F)cc2)CC1 [Compound 50, tert-Butyl-4-[2-(4-fluorophenoxy)-3-(trifluoromethyl)benzoyl]piperazine-1-carboxylate]",41.4,35.2,
1.04,6.39,"O=C(Nc1ccccc1N1CCNCC1)c1cccc(C(F)(F)F)c1Oc1ccc(F)cc1 [Compound 53, 2-(4-Fluorophenoxy)-N-[2-(piperazin-1-yl)phenyl]-3-(trifluoromethyl)benzamide]",13.5,4.1,
7.58,,"CN(C)c1ccc(NC(=O)c2cccc(C(F)(F)F)c2Oc2ccc(F)cc2)cc1 [Compound 36, N-[4-(Dimethylamino)phenyl]-2-(4-fluorophenoxy)-3-(trifluoromethyl)benzamide]",239,> 100,
15.7,,"CC(=O)Nc1ccc(Oc2c(C(=O)Nc3ccc(N4CCNCC4)cc3)cccc2C(F)(F)F)cc1 [Compound 63, 2-(4-Acetamidophenoxy)-N-[4-(piperazin-1-yl)phenyl]-3-(trifluoromethyl)benzamide]",113,,
